Here are results for 1 compound from patent publication US20250129146A1, “COMBINED CANCER THERAPY WITH AN EPITHELIAL CELL ADHESION MOLECULE (EPCAM) INHIBITOR AND A WNT INHIBITOR” (ACADEMIA SINICA, priority 2021, published 2025).

Entries after “also recorded” stand apart in the source; their conditions may differ.

Series [1] relates to HCT116 cells. The experiment in a line: Metastatic animal model of human CRC (HCT116 cells via tail vein). Type of series: in vivo, NOD/SCID mice. As for the experimental part: (§1) All animal experiments were approved and performed according to the regulations from the IACUC at Academia Sinica. HCT116 cells (1×10^6) were injected via tail vein for the metastatic model. Otherwise, 2×10^5 HCT116 cells with luciferase were surgically transplanted into the cecum wall for the orthotopic model. Male NOD/SCID mice, approximately 6 to 8 weeks old, were used for animal experiments (n=5 and n=6 for each treatment group in metastatic and orthotopic models respectively). At 72-h post-injection/transplantation, mice were randomly distributed into four different treatment groups. For the treatments, animals were injected with 20 mg/kg IgG or EpAb2-6 via tail vein twice a week for four weeks, or fed by oral gavage with either vehicle [0.5% methylcellulose (Sigma-Aldrich) and 0.5% Tween80 (Sigma-Aldrich)] or 5 mg/kg LGK974 (MedChemExpress) formulated with the vehicle on alternating days for four weeks, or animals were treated with the combination of both inhibitor and antibody. For the metastatic model, survival was the main endpoint. For the orthotopic model, tumor progression was monitor using bioluminescence imaging. To image the tumors, intraperitoneal injection of D-Luciferin (GOLD BIO) was performed, and images were taken 10 min post-injection.

For series [2], the system named is HCT116, HT29 and SW620 cells. The experiment in a line: Tumorsphere assay. Type of series: cell-based, human. As to the method:
Cells were seeded in ultra-low adherent 6-well plates (5×10^4 cells per well) or 24-well plates (1×10^3 cells per well) and maintained in DMEM/F-12 supplemented with B27. Further, cells were treated with 20 μg/mL mEpAb2-6, hEpAb2-6 or MT201 (Produced in house), or 400 ng/mL LGK974 (MedChemExpress) or the combination, by direct addition to the culture medium. The entire culture medium, including the treatment component, was changed in every other day. Cells were cultured for 10 days, and on 10th day, spheres were counted and photographed under the microscope.

Another series concerns HT29 and SW620 cells. The experiment in a line: Colony formation assay. The series is classed as cell-based, human. As for the experimental part:
Cells were seeded in 12-well plate (5×10^3 cells per well) and treated with 20 µg/mL mEpAb2-6, hEpAb2-6 or MT201 (Produced in house) or 400 ng/mL LGK974 (MedChemExpress) or combination as indicated in which case the elements were directly added to the culture medium. The medium along with the treatment component were changed in every alternating day and the cells were allowed to grow for 10 days. On the tenth day, cells were washed and fixed with 4% paraformaldehyde and further stained with 1% crystal violet for 30 min. Colonies were washed 3 times with PBS, and images were taken. Furthermore, to measure colony density, the wells were incubated with 0.5% SDS shaking for 2 h at RT. The supernatants were collected, and the absorbance of the solution was taken at 570 nm using a microplate reader.

Series [3] has as its system Wnt receptors (FZD6/7, LRP5/6). The experiment in a line: Wnt receptor protein and mRNA expression (western blot, qPCR). The series is classed as cell-based, human. The conditions noted are these: HCT116 cells; EpAb2-6, LGK974 or combination. As to the method:
(§2) For western blotting, cells were extracted using radioimmunoprecipitation assay (RIPA) buffer [(0.01 M sodium phosphate, pH 7.2), 150 mM NaCl, 2 mM EDTA, 50 mM NaF, 1% Nonidet P-40, 1% sodium deoxycholate, and 0.1% SDS)] containing phosphatase inhibitor (Roche) and protease inhibitor (Roche) cocktail. Equal amounts of protein were separated by SDS-PAGE and then transferred to PVDF membranes. The membranes were blocked with 3% BSA in TBST (Blocking solution) and incubated with necessary primary antibodies in the blocking solution overnight at 4° C. Membranes were then incubated with HRP-conjugated secondary antibodies in the blocking solution for 1 h at room temperature, and protein expression were detected. Antibodies used: anti-α-tubulin (Sigma), anti-EpCAM (abeam), anti-Active β-Catenin (Millipore), anti-total β-Catenin (abeam), anti-Frizzled 6 (CST), anti-Frizzled 7 (Santa Cruz Biotech), anti-LRP5 (abcam), anti-Phospho-LRP5 (abcam), anti-Phospho-LRP6 (CST), anti-LRP6 (CST) and anti-EpEX antibody EpAb3-5 (Produced in house), anti-ADAM17 (abcam), anti-phopho-ADAM17 (abcam), anti-Presenilin2 (abcam), anti-phospho-Presenilin2 (S327) (abcam), anti-phospho-Presenilin2 (S330) (abcam) and anti-Axin2 (CST).
(§3) Total RNA was extracted using TRI reagent and 5 μg of the total RNA was further reverse-transcribed using oligo (dT) primer with reverse transcriptase. Quantitative real time RT-PCR (qPCR) was performed on cDNA using the Light Cycler 480 SYBR Green-I Master kit and the LightCycler480 System. The gene expression levels of each sample were normalized to the expression levels of glyceraldehyde 3-phosphate dehydrogenase (GAPDH) or β-actin.
A general note: In western blotting, separated proteins are transferred to a membrane and probed.

The subject of a further series is active β-Catenin. The experiment in a line: Nuclear translocation of β-Catenin (immunofluorescence staining; cell fractionation with western blot). The series is classed as cell-based, human. Particulars: wild-type HCT116 cells; 20 μg/mL EpAb2-6 for 6 h, 400 ng/mL LGK974 for 9 h or combination. As for the experimental part:
Cells (1×10^6) were seeded overnight and further allowed to grow in serum free conditions. Then cells were further treated with 20 μg/mL mEpAb2-6 or hEpAb2-6 or MT201 for 6 h or with 400 ng/mL LGK974 (MedChemExpress) for 9 h or combination as indicated. Samples were fractioned into cytosol and nuclear extracts using nuclear/cytosol fractionation kit (Biovision) according to the manufacturer's protocol. The fractions were then subjected to western blot analysis.
as §2
Glass slides were used in 24-well plates and coated with 0.1% gelatin. Further, 3×10^4 cells were seeded in serum free medium overnight. Cells were treated with 20 μg/mL EpAb2-6 for 6 h, or 400 ng/mL LGK974 (MedChemExpress) for 9 h or the combination. Cells were washed using ice-cold PBS and fixed with 4% paraformaldehyde for 15 min at RT and washed with ice-cold PBS. Further, cells were permeabilized using 0.1% triton-X in PBS for 20 min and subsequently washed with PBS. Cells were blocked with 3% BSA in PBS for 1 h at RT. Next, cells were treated with primary antibody anti-Active β-Catenin (Millipore) overnight. Then, cells were washed and treated with secondary antibody in 3% BSA containing PBS along with DAPI for 1 h at RT. Samples were then washed in PBS five times and mounted for microscopy. Nuclear β-Catenin intensities were calculated using IMARIS (Oxford Instruments) software.

The subject of a further series is LRP5/6. The experiment in a line: Phosphorylation of LRP5/6 (western blot). Particulars: SW620 cells; LGK974, EpAb2-6 or combined treatment. Type of series: cell-based, human. As for the experimental part: as §2
For series [4] the following is noted: dose of 5 mg/kg body weight; cited from earlier work.
For series [5], the system named is HCT116 cells. The series can be described thus: Orthotopic animal model of human CRC (HCT116 cells with luciferase in cecum wall). Type of series: in vivo, NOD/SCID mice. As to the method: as §1
The test system of series [6] is colon cancer cells (SW620, HCT116). The series can be described thus: Annexin-V/PI apoptosis assay. The series is classed as cell-based, human. The conditions noted are these: SW620 and HCT116 cells; 20 μg/mL EpAb2-6, LGK974 or the combination for 24 hrs. As for the experimental part:
Cells were seeded in 24-well plate ([…] cells per well) overnight and then treated with 20 μg/mL mEpAb2-6, hEpAb2-6 or MT201, or […] LGK974 (MedChemExpress) or the combination for 24 hrs. Cell pellets were collected, and an apoptosis assay was performed using an Annexin-V/PI apoptosis kit (BD Biosciences). Results were read by flow cytometry analysis percentage apoptotic cells was calculated.

The test system of the next series is Oct4, Sox2 and c-Myc. The experiment in a line: Stemness (pluripotency) factor expression (western blot, qPCR). The series is classed as cell-based, human. Particulars: HT29 cells; LGK974, EpAb2-6 or combined treatment. As to the method: as §2, §3
Where [7] appears, read: EpCAM-knockout cells, exogenous EpEX, LGK974 or both.

Consider `Cc1cc(-c2ncc(CC(=O)Nc3ccc(-c4cnccn4)cn3)cc2C)ccn1` [LGK974, 2-(2′,3-dimethyl-[2,4′-bipyridin]-5-yl)-N-(5-(pyrazin-2-yl)pyridin-2-yl)acetamide, reference compound], for which the animal survival result in the series on HCT116 cells [1] (20 mg/kg EpAb2-6 via tail vein twice a week, 5 mg/kg LGK974 oral gavage on alternating days, four weeks) is “decreased overall survival”. Moreover, the distant metastases result with HCT116 cells [1] (autopsies) is reported as “distinct metastases; also recorded: found to have distant metastases”. Also, the tumorsphere formation entry in [2] (setting [7]) is recorded as “complete loss of ability to form spheres or colonies”; in [2] (HCT116 and HT29 cells, 20 μg/mL EpAb2-6, 400 ng/mL LGK974 or combination, 10 days), “decreased”. In series [2] (summary statement, CRC cells, tumorsphere and colony formation), the cancer stemness properties entry is recorded as “partially attenuate cancer sternness properties”. The colony formation result is “complete loss of ability to form spheres or colonies” with HT29 and SW620 cells (setting [7]); “decreased” with HT29 and SW620 cells (HT29 cells, 20 µg/mL EpAb2-6, 400 ng/mL LGK974 or combination, 10 days). The “expression of Wnt receptors” value in [3] is “partially decrease”. Moreover, the “nuclear β-Catenin” value in the series on active β-Catenin is “decreased nuclear D3-Catenin but did not completely clear the protein from the nucleus”. Further, the LRP5/6 phosphorylation entry with LRP5/6 was “could decrease LRP5/6 phosphorylation”. Also, the toxicity result in series [4] was “non-toxic”. Also, the “body weight after cessation of treatment” value in the series on HCT116 cells [5] (orthotopic model) is listed as “continued to lose body weight”. Also, in the series on HCT116 cells [5] (orthotopic model), the “median / overall survival” value is on record as “low median survival”. Moreover, the “body weight during the treatment period” value in the series on HCT116 cells [5] (orthotopic model, 5 mg/kg LGK974) is on record as “decreased during the treatment period”. The “tumor progression (bioluminescence)” value in the series on HCT116 cells [5] (orthotopic model, 20 mg/kg EpAb2-6 via tail vein twice a week, 5 mg/kg LGK974 oral gavage on alternating days, four weeks) is reported as “developed significant tumors”. Further, the “tumor (cancer) progression in animal models” value in the series with HCT116 cells [5] (summary statement, metastatic and orthotopic animal models of human CRC) is recorded as “did not observe significant effects”. The induction of apoptosis entry in series [6] was “did not observe significant effects”. Further, the “expression of pluripotency factors” value with Oct4, Sox2 and c-Myc is “decreased pluripotency factor expressions”.
